# Counter-ions that a name gives are not always drawn. Like-named read-outs stand apart in the source and are kept apart here.
# Assays:
# [1] = target: muscarinic receptors (rat cerebral cortex); type: binding, Hooded Lister rats; conditions: 0.27 nM 3H-QNB, 37° C., 30 min
# [2] = target: muscarinic receptors (rat cerebral cortex); assay: Radio ligand binding: displacement of the muscarinic agonist 3H-OXO-M (3H-Oxotremorine-M); design: species or system Hooded Lister rats; conditions: 2 nM 3H-OXO-M, 2 mM magnesium chloride, 37° C., 30 min
smiles,measurement,setting,value
"COC(=O)C1=CC2CCCN(C1)C2 (racemic) [E8, (±) Methyl 1-azabicyclo[3.3.1]non-3-en-3-yl carboxylate hydrochloride]",IC50,[1],4100 nM
same,IC50,[2],118 nM
"CC(=O)O[C@@H]1C[C@H]2CCCN(C2)C1 (relative stereo) [E1, (±) exo-1-Azabicyclo[3.3.1]non-3-yl acetate hydrochloride]",IC50,[1],3900 nM
same,IC50,[2],81 nM
"CCO[C@@H]1C[C@H]2CCCN(C2)C1 (relative stereo) [E2, (±) exo-3-Ethoxy-1-azabicyclo[3.3.1]nonane oxalate]",IC50,[1],6500 nM
same,IC50,[2],210 nM
"NC(=O)O[C@@H]1C[C@H]2CCCN(C2)C1 (relative stereo) [E3, (±) exo-1-Azabicyclo[3.3.1]non-3-yl carbamate hydrochloride]",IC50,[1],36000 nM
same,IC50,[2],103 nM
"COC(=O)[C@@H]1C[C@H]2CCCN(C2)C1 (relative stereo) [E4, (±) exo-Methyl 1-azabicyclo[3.3.1]non-3-yl carboxylate oxalate]",IC50,[1],3900 nM
same,IC50,[2],81 nM
"COC(=O)[C@@H]1C[C@H]2CCCCN(C2)C1 (relative stereo) [E5, (±) exo-Methyl 1-azabicyclo[4.3.1]dec-8-yl carboxylate oxalate]",IC50,[1],3200 nM
same,IC50,[2],153 nM
"CC(=O)O[C@H]1CN2CCC[C@H]1C2 (relative stereo) [E6, (±) exo-1-Azabicyclo[3.2.1]oct-6-yl acetate hydrochloride]",IC50,[1],27000 nM
same,IC50,[2],82 nM
"COC(=O)[C@H]1CN2CCC[C@H]1C2 (relative stereo) [E7, (±) exo-Methyl 1-azabicyclo[3.2.1]oct-6-yl carboxylate hydrochloride]",IC50,[1],65000 nM
same,IC50,[2],510 nM
"COC[C@@H]1C[C@H]2CCCN(C2)C1 (relative stereo) [E9, (±) exo-3-Methoxymethyl-1-azabicyclo[3.3.1]nonane oxalate salt]",IC50,[1],38000 nM
same,IC50,[2],1300 nM
"C#CCOC(=O)[C@@H]1C[C@H]2CCCN(C2)C1 (relative stereo) [E10, (±) exo-Propargyl 1-azabicyclo[3.3.1]non-3-yl-carboxylate oxylate salt]",IC50,[1],510 nM
same,IC50,[2],40 nM
"CNC(=O)O[C@@H]1C[C@H]2CCCN(C2)C1 (relative stereo) [E11, (±) exo-1-Azabicyclo[3.3.1]non-3-yl-N-methylcarbamate hydrochloride salt]",IC50,[1],5200 nM
same,IC50,[2],460 nM
"CC(=O)O[C@H]1CN2CC[C@H]1C2 (relative stereo) [E12, (±) exo-1-Azabicyclo[2.2.1]hept-3-yl acetate oxalate salt]",IC50,[1],46000 nM
same,IC50,[2],175 nM
"CCO[C@H]1CN2CC[C@H]1C2 (relative stereo) [E13, (±) exo-3-Ethoxy-1-azabicyclo[2.2.1]heptane oxalate salt]",IC50,[1],54000 nM
same,IC50,[2],510 nM
"CC(=O)O[C@@H]1C[C@H]2CCN(C2)C1 (relative stereo) [E14, (±) exo-1-Azabicyclo[3.2.1]oct-3-yl acetate hydrochloride salt]",IC50,[1],14000 nM
same,IC50,[2],38 nM
"COC(=O)[C@@H]1C[C@H]2CCN(C2)C1 (relative stereo) [E15, (±) exo-Methyl-1-azabicyclo[3.2.1]oct-3-yl carboxylate hydrochloride]",IC50,[1],11000 nM
same,IC50,[2],80 nM
"COC(=O)[C@H]1CN2CC[C@H]1C2 (relative stereo) [E16, (±) exo-Methyl 1-azabicyclo[2.2.1]hept-3-yl carboxylate oxalate salt]",IC50,[1],60000 nM
same,IC50,[2],190 nM
"CCC(=O)O[C@H]1CN2CCC[C@H]1C2 (relative stereo) [E17, (±) exo-1-Azabicyclo[3.2.1]oct-6-yl propionate hydrochloride]",IC50,[1],7300 nM
same,IC50,[2],410 nM
"CCCO[C@H]1CN2CCC[C@H]1C2 (relative stereo) [E18, (±) exo-6-n-Propoxy-1-azabicyclo[3.2.1]octane hydrochloride]",IC50,[1],15500 nM
same,IC50,[2],630 nM
"CCO[C@H]1CN2CCC[C@H]1C2 (relative stereo) [E19, (±) exo-6-Ethoxy-1-azabicycl9[3.2.1]octane hydrochloride]",IC50,[1],64000 nM
same,IC50,[2],460 nM
"CNC(=O)O[C@H]1CN2CCC[C@H]1C2 (relative stereo) [E20, (±) exo-1-Azabicyclo[3.2.1]oct-6-yl-N-methylcarbamate oxalate salt]",IC50,[1],42000 nM
same,IC50,[2],1900 nM
"CCC(=O)O[C@@H]1C[C@H]2CCCN(C2)C1 (relative stereo) [E21, (±) exo-1-Azabicyclo[3.3.1]non-3-yl propionate hydrochloride salt]",IC50,[1],1000 nM
same,IC50,[2],367 nM
"CO[C@@H]1C[C@H]2CCCN(C2)C1 (relative stereo) [E22, (±) exo-3-Methoxy-1-azabicyclo[3.3.1]nonane oxalate salt]",IC50,[1],170000 nM
same,IC50,[2],5000 nM
"CCCO[C@@H]1C[C@H]2CCCN(C2)C1 (relative stereo) [E23, (±) exo-3-n-Propoxy-1-azabicyclo[3.3.1]nonane oxalate salt]",IC50,[1],1200 nM
same,IC50,[2],160 nM
"CN(C)C(=O)O[C@@H]1C[C@H]2CCCN(C2)C1 (relative stereo) [E24, (±) exo-1-Azabicyclo[3.3.1]non-3-yl-N,N-dimetnyl-carbamate hydrochloride]",IC50,[1],1800 nM
same,IC50,[2],255 nM
"CCOC(=O)[C@@H]1C[C@H]2CCCN(C2)C1 (relative stereo) [E25, (±) exo-Ethyl 1-azabicyclo[3.3.1]non-3yl carboxylate oxalate salt]",IC50,[1],620 nM
same,IC50,[2],65 nM
